Article PMC5053573, “Structure-Based Design of Tetrahydroisoquinoline-7-carboxamides as Selective Discoidin Domain Receptor 1 (DDR1) Inhibitors” (Journal of Medicinal Chemistry, 2016)

Columns and labels:
[1] = target: T1, DDR2 (Homo sapiens, UniProt Q16832); experiment: LANCE ULTRA kinase assay, DDR2; format: biochemical
T1 sequence (Q16832 22-855): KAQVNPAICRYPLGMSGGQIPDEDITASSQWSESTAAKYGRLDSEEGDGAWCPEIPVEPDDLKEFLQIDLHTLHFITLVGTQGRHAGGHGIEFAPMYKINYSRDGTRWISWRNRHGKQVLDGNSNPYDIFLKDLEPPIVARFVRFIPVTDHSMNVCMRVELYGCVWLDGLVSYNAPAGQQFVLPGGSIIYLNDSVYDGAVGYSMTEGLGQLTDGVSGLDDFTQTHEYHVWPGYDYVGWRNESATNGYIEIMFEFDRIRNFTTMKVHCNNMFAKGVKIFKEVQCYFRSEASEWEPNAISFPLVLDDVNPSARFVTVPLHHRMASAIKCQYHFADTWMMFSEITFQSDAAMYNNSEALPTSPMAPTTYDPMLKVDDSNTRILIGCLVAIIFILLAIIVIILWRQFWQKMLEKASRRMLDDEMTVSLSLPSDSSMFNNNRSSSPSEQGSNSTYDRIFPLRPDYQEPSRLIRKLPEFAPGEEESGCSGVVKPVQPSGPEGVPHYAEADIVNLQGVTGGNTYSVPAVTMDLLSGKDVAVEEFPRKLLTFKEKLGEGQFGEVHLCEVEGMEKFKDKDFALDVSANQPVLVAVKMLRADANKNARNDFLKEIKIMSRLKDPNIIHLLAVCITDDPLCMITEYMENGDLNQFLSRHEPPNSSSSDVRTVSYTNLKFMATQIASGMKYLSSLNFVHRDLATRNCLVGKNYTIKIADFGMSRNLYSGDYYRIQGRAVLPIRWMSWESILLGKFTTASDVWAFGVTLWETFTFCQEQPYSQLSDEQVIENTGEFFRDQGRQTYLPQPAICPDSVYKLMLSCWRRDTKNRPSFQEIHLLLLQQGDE

[2] = target: T2, TRKB (Homo sapiens, UniProt Q16620); experiment: KINOMEscan binding constant, TRKB; settings: read-out: Binding affinity (Kd, nM) TRKB
T2 construct: purchased DiscoveRx
T2 sequence (Q16620 32-822): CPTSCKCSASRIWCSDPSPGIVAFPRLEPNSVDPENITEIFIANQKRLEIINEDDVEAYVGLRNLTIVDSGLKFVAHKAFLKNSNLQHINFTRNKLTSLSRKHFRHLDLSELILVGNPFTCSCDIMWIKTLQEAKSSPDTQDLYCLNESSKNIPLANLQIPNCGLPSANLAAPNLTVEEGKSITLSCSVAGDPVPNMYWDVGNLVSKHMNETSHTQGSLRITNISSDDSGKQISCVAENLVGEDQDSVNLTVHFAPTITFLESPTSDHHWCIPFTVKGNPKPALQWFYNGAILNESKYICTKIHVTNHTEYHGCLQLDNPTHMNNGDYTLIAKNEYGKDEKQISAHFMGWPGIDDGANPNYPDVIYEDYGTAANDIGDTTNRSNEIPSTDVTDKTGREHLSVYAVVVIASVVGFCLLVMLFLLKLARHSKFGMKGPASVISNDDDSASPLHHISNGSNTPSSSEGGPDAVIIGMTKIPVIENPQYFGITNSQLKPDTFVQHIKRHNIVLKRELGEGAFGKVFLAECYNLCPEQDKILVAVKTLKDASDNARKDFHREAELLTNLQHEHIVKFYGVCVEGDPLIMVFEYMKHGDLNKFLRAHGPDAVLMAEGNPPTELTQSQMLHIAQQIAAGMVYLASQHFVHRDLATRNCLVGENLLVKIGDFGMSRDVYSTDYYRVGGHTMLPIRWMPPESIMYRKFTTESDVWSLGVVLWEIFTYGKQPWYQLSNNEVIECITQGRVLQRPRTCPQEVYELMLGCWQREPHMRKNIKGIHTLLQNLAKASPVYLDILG

[3] = target: DDR1 (Homo sapiens, UniProt Q08345)
Sequence of DDR1 (Q08345 19-913): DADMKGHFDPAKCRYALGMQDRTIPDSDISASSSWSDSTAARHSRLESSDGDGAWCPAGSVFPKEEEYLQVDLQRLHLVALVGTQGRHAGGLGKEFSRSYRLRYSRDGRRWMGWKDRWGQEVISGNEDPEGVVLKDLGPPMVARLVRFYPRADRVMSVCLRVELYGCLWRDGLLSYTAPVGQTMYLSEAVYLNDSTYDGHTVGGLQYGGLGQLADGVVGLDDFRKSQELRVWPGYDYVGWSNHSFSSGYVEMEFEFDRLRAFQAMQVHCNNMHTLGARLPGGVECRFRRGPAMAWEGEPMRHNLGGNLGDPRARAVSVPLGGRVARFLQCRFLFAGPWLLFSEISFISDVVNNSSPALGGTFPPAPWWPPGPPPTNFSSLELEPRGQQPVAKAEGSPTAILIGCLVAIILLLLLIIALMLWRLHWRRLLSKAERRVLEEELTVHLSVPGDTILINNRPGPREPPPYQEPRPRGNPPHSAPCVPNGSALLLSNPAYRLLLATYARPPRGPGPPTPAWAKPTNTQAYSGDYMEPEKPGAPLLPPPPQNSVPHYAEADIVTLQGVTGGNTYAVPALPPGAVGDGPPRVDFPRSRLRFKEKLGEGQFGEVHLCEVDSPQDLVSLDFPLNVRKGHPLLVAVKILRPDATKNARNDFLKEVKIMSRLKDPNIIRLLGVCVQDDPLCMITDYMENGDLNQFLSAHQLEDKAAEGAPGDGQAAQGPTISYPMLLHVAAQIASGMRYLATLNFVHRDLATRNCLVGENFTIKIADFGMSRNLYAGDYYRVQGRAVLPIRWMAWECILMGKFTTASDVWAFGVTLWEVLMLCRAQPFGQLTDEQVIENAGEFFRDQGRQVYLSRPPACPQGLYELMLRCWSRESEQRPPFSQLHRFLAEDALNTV

Row | IC50 [1] [nM] | Kd [2] [nM] | DDR1 inhibition, result in words [3] | SMILES
1 | > 7900 | 29 ± 5.5 | – | CN1CCN(Cc2cc(NC(=O)c3ccc4c(c3)CN(c3cncnc3)CC4)cc(C(F)(F)F)c2)CC1 [Compound 6a]
2 | – | 5.2 ± 1 | – | C[C@H]1CN(c2cncnc2)Cc2cc(C(=O)Nc3cc(CN4CCN(C)CC4)cc(C(F)(F)F)c3)ccc21 [Compound 6b]
3 | – | 36 ± 2.5 | – | C[C@@H]1CN(c2cncnc2)Cc2cc(C(=O)Nc3cc(CN4CCN(C)CC4)cc(C(F)(F)F)c3)ccc21 [Compound 6c]
4 | 546 ± 49 | 22 ± 1 | – | CC[C@H]1CN(c2cncnc2)Cc2cc(C(=O)Nc3cc(CN4CCN(C)CC4)cc(C(F)(F)F)c3)ccc21 [Compound 6d]
5 | > 10000 | 500 ± 30 | – | CC[C@@H]1CN(c2cncnc2)Cc2cc(C(=O)Nc3cc(CN4CCN(C)CC4)cc(C(F)(F)F)c3)ccc21 [Compound 6e]
6 | > 10000 | 340 ± 5 | substantial potency loss | CC(C)[C@H]1CN(c2cncnc2)Cc2cc(C(=O)Nc3cc(CN4CCN(C)CC4)cc(C(F)(F)F)c3)ccc21 [Compound 6f]
7 | > 10000 | > 1000 | almost no DDR1 inhibition | CC(C)[C@@H]1CN(c2cncnc2)Cc2cc(C(=O)Nc3cc(CN4CCN(C)CC4)cc(C(F)(F)F)c3)ccc21 [Compound 6g]
8 | > 4000 | 94 ± 6 | – | CN1CCN(Cc2cc(NC(=O)c3ccc4c(c3)CN(c3cccnc3)CC4)cc(C(F)(F)F)c2)CC1 [Compound 6h]

Row | SMILES | IC50 [1] [nM] | Kd [2] [nM] | DDR1 inhibition, result in words [3]
9 | CN1CCN(Cc2cc(NC(=O)c3ccc4c(c3)CN(c3ccccc3)CC4)cc(C(F)(F)F)c2)CC1 [Compound 6i] | > 10000 | > 1000 | totally abolished DDR1 inhibitory potency
